Assay results as given in BindingDB's records for doi:10.1021/jm8013458 (University of Copenhagen, 2009).

Columns and labels:
[1] = biological target: Excitatory amino acid transporter 2 (Homo sapiens, UniProt P43004); assay: Displacement of [3H]D-Asp from human EAAT2 receptor expressed in HEK293 cells
[2] = biological target: T1, Excitatory amino acid transporter 3 (Homo sapiens, UniProt P43005); assay: Displacement of [3H]D-Asp from human EAAT3 receptor expressed in HEK293 cells
T1 sequence (P43005 whole entry): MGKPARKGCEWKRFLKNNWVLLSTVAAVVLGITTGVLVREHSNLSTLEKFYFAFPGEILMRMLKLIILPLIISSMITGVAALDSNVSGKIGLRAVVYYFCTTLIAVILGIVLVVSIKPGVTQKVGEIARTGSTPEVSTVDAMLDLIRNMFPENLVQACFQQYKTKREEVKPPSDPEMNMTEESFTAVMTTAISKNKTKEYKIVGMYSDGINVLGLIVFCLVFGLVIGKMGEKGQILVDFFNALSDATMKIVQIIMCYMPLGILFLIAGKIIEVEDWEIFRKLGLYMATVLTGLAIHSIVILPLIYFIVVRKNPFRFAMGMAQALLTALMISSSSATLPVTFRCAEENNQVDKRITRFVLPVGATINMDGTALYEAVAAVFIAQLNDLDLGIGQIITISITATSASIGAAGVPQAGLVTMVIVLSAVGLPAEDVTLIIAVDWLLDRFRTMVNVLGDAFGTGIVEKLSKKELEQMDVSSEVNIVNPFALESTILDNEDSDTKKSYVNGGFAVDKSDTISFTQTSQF

[3] = biological target: Excitatory amino acid transporter 1 (Homo sapiens, UniProt P43003); assay: Displacement of [3H]D-Asp from human EAAT1 receptor expressed in HEK293 cells
Excitatory amino acid transporter 1, sequence (P43003 whole entry): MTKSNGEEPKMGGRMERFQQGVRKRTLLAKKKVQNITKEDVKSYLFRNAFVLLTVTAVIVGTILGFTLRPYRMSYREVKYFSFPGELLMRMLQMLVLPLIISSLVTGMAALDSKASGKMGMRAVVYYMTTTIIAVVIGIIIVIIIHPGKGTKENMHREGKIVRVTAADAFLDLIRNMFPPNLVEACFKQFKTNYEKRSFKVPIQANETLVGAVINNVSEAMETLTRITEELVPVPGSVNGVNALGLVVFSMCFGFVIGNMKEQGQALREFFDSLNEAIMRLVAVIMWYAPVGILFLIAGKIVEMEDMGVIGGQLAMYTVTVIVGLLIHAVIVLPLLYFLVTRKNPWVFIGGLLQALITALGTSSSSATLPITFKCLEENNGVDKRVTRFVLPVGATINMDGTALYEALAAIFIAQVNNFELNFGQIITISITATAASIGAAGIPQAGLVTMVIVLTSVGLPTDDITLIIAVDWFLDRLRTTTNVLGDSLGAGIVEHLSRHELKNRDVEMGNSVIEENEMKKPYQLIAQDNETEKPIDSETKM

Excitatory amino acid transporter 2, sequence (P43004 whole entry): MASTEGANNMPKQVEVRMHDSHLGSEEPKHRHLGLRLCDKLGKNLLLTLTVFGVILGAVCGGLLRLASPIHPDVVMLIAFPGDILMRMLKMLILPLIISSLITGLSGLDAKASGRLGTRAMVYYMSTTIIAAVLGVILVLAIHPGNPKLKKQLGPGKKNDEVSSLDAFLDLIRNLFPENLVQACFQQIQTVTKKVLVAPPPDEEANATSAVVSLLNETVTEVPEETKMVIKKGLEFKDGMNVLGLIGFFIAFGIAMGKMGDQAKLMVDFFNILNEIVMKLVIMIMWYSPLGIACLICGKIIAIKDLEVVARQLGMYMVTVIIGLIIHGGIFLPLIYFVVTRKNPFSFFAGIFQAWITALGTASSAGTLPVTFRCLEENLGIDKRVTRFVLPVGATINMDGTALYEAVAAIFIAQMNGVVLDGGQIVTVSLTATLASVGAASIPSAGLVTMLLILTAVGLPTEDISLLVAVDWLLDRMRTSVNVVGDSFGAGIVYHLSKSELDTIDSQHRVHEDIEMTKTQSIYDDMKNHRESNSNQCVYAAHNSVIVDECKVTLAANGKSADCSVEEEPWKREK

Compound | IC50 [1] [µM] | IC50 [2] [µM] | IC50 [3] [µM]
N#CC1C(=N)OC2=C(C(=O)CC(c3ccccc3)C2)C1c1ccc2c(c1)OCO2 (centres undefined) | > 300 | > 300 | –
COc1ccc(C2C3=C(CC(c4ccc(OC)c(OC)c4)CC3=O)OC(=N)C2C#N)cc1 (centres undefined) [2-Amino-4-(4-methoxyphenyl)-7-(3,4-dimethoxyphenyl)-5-oxo-5,6,7,8-tetrahydro-4H-chromene-3-carbonitrile] | > 300 | > 300 | –
COc1ccc(C2C3=C(CC(c4cccc5ccccc45)CC3=O)OC(=N)C2C#N)cc1 (centres undefined) [2-Amino-4-(4-methoxyphenyl)-7-(naphthalene-1-yl)-5-oxo-5,6,7,8-tetrahydro-4H-chromene-3-carbonitrile] | > 300 | > 300 | 0.66
N#CC1CC2=C(CC(c3ccccc3)CC2=O)OC1=N (centres undefined) [2-Amino-5-oxo-7-phenyl-5,6,7,8-tetrahydro-4H-chromene-3-carbonitrile] | > 300 | > 300 | > 300
COc1cccc(C2C3=C(CC(c4ccccc4)CC3=O)OC(=N)C2C#N)c1OC (centres undefined) [2-amino-4-(2,3-dimethoxyphenyl)-5-oxo-7-phenyl-5,6,7,8-tetrahydro-4H-chromene-3-carbonitrile] | – | – | 50.1
N#CC1C(=N)OC2=C(C(=O)CCC2)C1c1ccccc1F (centres undefined) [2-amino-4-(2-fluorophenyl)-5-oxo-5,6,7,8-tetrahydro-4H-chromene-3-carbonitrile] | > 300 | > 300 | > 300
CSc1ccc(C2C3=C(CC(c4ccccc4)CC3=O)OC(=N)C2C#N)cc1 (centres undefined) [2-amino-4-(4-(methylthio)phenyl)-5-oxo-7-phenyl-5,6,7,8-tetrahydro-4H-chromene-3-carbonitrile] | > 100 | > 100 | –
N#CC1C(=N)OC2=C(C(=O)CC(c3cccs3)C2)C1c1ccc([N+](=O)[O-])cc1 (centres undefined) [2-amino-4-(4-nitrophenyl)-5-oxo-7-(thiophen-2-yl)-5,6,7,8-tetrahydro-4H-chromene-3-carbonitrile] | > 300 | > 300 | –
N#CC1C(=N)OC2=C(C(=O)CC(c3ccccc3)C2)C1c1ccc([N+](=O)[O-])cc1 (centres undefined) [2-amino-4-(4-nitrophenyl)-5-oxo-7-phenyl-5,6,7,8-tetrahydro-4H-chromene-3-carbonitrile] | > 100 | > 100 | 3.6
CC1CC(=O)C2=C(C1)OC(=N)C(C#N)C2c1ccc2c(c1)OCO2 (centres undefined) [2-amino-4-(benzo[d][1,3]dioxol-5-yl)-7-methyl-5-oxo-5,6,7,8-tetrahydro-4H-chromene-3-carbonitrile] | > 300 | > 300 | > 300
N#CC1C(=N)OC2=C(C(=O)CC(c3ccccc3)C2)C1c1ccc(-c2ccccc2)cc1 (centres undefined) [2-amino-4-(biphenyl-4-yl)-5-oxo-7-phenyl-5,6,7,8-tetrahydro-4H-chromene-3-carbonitrile] | > 100 | > 100 | –
N#CC1C(=N)OC2=C(C(=O)CC(c3ccccc3)C2)C1c1ccc2ccccc2c1 (centres undefined) [2-amino-4-(naphthalen-2-yl)-5-oxo-7-phenyl-5,6,7,8-tetrahydro-4H-chromene-3-carbonitrile] | > 100 | > 100 | 3.6
N#CC1C(=N)OC2=C(C(=O)CC(c3ccccc3)C2)C1Cc1ccccc1 (centres undefined) [2-amino-4-benzyl-5-oxo-7-phenyl-5,6,7,8-tetrahydro-4H-chromene-3-carbonitrile] | > 100 | > 100 | 30
CC1C2=C(CC(c3ccccc3)CC2=O)OC(=N)C1C#N (centres undefined) [2-amino-4-methyl-5-oxo-7-phenyl-5,6,7,8-tetrahydro-4H-chromene-3-carbonitrile] | > 316 | > 300 | –
N#CC1C(=N)OC2=C(C(=O)CC(c3ccccc3)C2)C1c1cccnc1 (centres undefined) [2-amino-5-oxo-7-phenyl-4-(pyridin-3-yl)-5,6,7,8-tetrahydro-4H-chromene-3-carbonitrile] | > 300 | > 300 | 30
COc1ccc(C2C3=C(CC(c4ccccc4Cl)CC3=O)OC(=N)C2C#N)cc1 (centres undefined) [2-amino-7-(2-chlorophenyl)-4-(4-methoxyphenyl)-5-oxo-5,6,7,8-tetrahydro-4H-chromene-3-carbonitrile] | > 300 | > 300 | –
N#CC1C(=N)OC2=C(C(=O)CC(c3ccco3)C2)C1c1ccccc1 (centres undefined) [2-amino-7-(furan-2-yl)-5-oxo-4-phenyl-5,6,7,8-tetrahydro-4H-chromene-3-carbonitrile] | > 300 | > 300 | –
COc1ccc(C2C3=C(CC(c4ccco4)CC3=O)OC(=N)C2C#N)cc1OC(=O)N1CCOCC1 (centres undefined) [5-(2-amino-3-cyano-7-(furan-2-yl)-5-oxo-5,6,7,8-tetrahydro-4H-chromen-4-yl)-2-methoxyphenyl morpholine-4-carboxylate] | > 300 | > 300 | 100
